# In PMC9750872, “Ras-mutant cancers are sensitive to small molecule inhibition of V-type ATPases in mice” (Nature biotechnology, 2022):
# Test system: 468 human kinases
# Experiment: KINOMEscan profiling
# Format: binding
# Conditions: 249C at 10,000 nM
# Excerpt: The KINOMEscan™ Profiling Service consisting of 468 human kinases was used to assess 249C inhibitor activity to check for off-target effects as previously described.
# Supplementary Fi g u re 12: Compound 249C assessed for off-target effects using the KIN OME scanTM screening platform. (A) Selectivity (S-score) for 249C wher e the sco re is a qu antitative measu re o f compound selectivity against human kinases. It is calculate b y dividing the number of k inases that compounds bi nd to b y the total number of distinct kinases tested, excluding mutant variants (S = number of hits / number of assa ys). 1 hit out of >400 kinases is reported for test compound (249C) = 0.002. S(35) = number of non- mutant kinases with % ctrl <35/number of non- mutant kinases; (B) Kinome interaction map for 249C at 10,000 nM. Each red dot indicates a kinase found to bind, where larger dots indicate higher affinit y interactions.
# 1 Tyrosine Kinase (TK) out of >400 kinases ( created in TREEspotTM ) with low affinity. This is calculated using
# Dissociation constants (Kds) were determined using 249C at 30,000 nM, Hill slopes were set to - 1 and curves were fitted using a non- linear least square fit with the […]
# (1 picture or pasted object on this page, not shown here)
smiles,measurement,value
CN1CCOC(CNC(=O)C2(C)C(c3ccc(Cl)o3)C(c3ccc(F)cc3F)=NN2c2ccc(F)cc2F)C1 (stereo not shown) [Compound 249C],number of kinases found to bind out of >400 kinases,1
